Assay results from US20050255096A1, “Combination treatment for acute myocardial infarction” (priority 2002, published 2005).

System: patients with acute myocardial infarction
Assay: Effect of the combination on the mortality of the patients with acute myocardial infarction (180 day mortality)
Format: in vivo
Conditions: 6-hour infusion of levosimendan, bolus 6, 12 or 24 μg/kg then 0.1, 0.2 or 0.4 μg/kg/min
Experimental: Effect of the combination on the mortality of the patients with acute myocardial infarction
Patients who had suffered from acute myocardial infarction within five days received placebo or a 6-hour infusion of levosimendan using a bolus of 6, 12 or 24 μg/kg and subsequent infusion of 0.1, 0.2 or 0.4 μg/kg/min. Patients were divided according to whether they had received thrombolytic therapy or not. The 180 day mortality was measured. It can be seen that the combination provided synergistic reduction in the mortality of patients with acute myocardial infarction.

[1] = patients who did not receive thrombolytic, N = 331
[2] = patients who received thrombolytic, N = 70

CC1CC(=O)NN=C1c1ccc(NN=C(C#N)C#N)cc1 (single isomer, unassigned; (-)) [Levosimendan, (−)-enantiomer of [[4-(1,4,5,6-tetrahydro-4-methyl-6-oxo-3-pyridazinyl)phenyl]hydrazono]propanedinitrile]
180-day mortality, Event (%) [1]: 24.8% | 180-day mortality, Event n [1]: 82 | 180-day mortality, Event (%) [2]: 12.8% | 180-day mortality, Event n [2]: 9
